# Assay: solubility in solvents
# Assay type: physicochemical
# Conditions: in water, highly water-soluble organic solvents, and highly fat-soluble organic solvents; free form
smiles,measurement,value
"COc1cc(C#Cc2nn([C@H]3CCNC3)c3ncnc(N)c23)cc(OC)c1 [compound B, (S)-3-((3,5-dimethoxyphenyl)ethynyl)-1-(pyrrolidin-3-yl)-1H-pyrazolo[3,4-d]pyrimidin-4-amine]",solubility,easily soluble
